Calls of active or inactive are those of the source. No cut-off for these calls is given here.
How the values were obtained:
[1] = system: MCF7; test: Antiproliferative activity against human MCF7 cells assessed as cell viability at 10 uM after 48 hrs by WST-1 assay; format: functional; conditions: MCF7, 48 h, read-out: Activity
[2] = system: SW-620; test: Antiinvasive activity against human SW620 cells at 10 uM after 24 hrs; format: functional, cell-based
[3] = system: HCT-116; test: Antiproliferative activity against human HCT116 cells after 48 hrs by WST-1 assay; format: functional, cell-based; conditions: HCT-116, 48 h
[4] = system: MDA-MB-231; test: Antiproliferative activity against human MDA-MB-231 cells after 48 hrs by WST-1 assay; format: functional, cell-based; conditions: MDA-MB-231, 48 h
[5] = system: Caco-2; test: Antiproliferative activity against human Caco-2 cells; format: functional, cell-based
[6] = system: NCI-H520; test: Antiproliferative activity against human NCIH520 cells after 48 hrs after 48 hrs by WST-1 assay; format: functional, cell-based
[7] = system: MDA-MB-231; test: Antiproliferative activity against human MDA-MB-231 cells assessed as cell viability at 10 uM after 48 hrs by WST-1 assay; format: functional; conditions: MDA-MB-231, 48 h, read-out: Activity

Row | Compound | viability at 10 µM [1] [%] | IC50 [3] [µM] | IC50 [4] [µM] | other results
1 | COC1=CC(c2ccc[nH]2)=N/C1=C\NC1CCc2ccccc21 (configuration not stated) | < 20 |  |  | 
2 | COC1=CC(c2ccc[nH]2)=N/C1=C\NC1Cc2ccccc2C1 | < 20 |  |  | Activity [2]: inactive
3 | COC1=CC(c2ccc[nH]2)=N/C1=C\NCCC(C)C [TAMBJAMINE K] |  | 13.7 | 15.3 | IC50 [5]: 0.0033 µM
4 | CO[C@@H]1CC(c2ccc[nH]2)=N[C@]12O[C@@H](C)C[C@@H]1CCCCCCCc3ccc([nH]3)[C@H]12 [MARINEOSIN A] |  | 0.14 | 0.36 | 
5 | COC1=CC(c2ccc[nH]2)=N/C1=C/c1ccc(CCCCCCC/C=C/C(C)=O)[nH]1 |  | 3.6 | 3.5 | 
6 | COC1=CC(c2ccc[nH]2)=N/C1=C\NC1CCCc2ccccc21 (configuration not stated) | < 10 | 1.8 | 4 | Activity [6]: inactive; viability at 10 µM [7]: 40%
7 | CCCC(C)N/C=C1\N=C(c2ccc[nH]2)C=C1OC (configuration not stated) | < 20 |  |  | 
8 | COC1=CC(c2ccc[nH]2)=N/C1=C\NCC1CCCCC1 | < 20 |  |  | 
